Usually IC50 stands for the point on the concentration scale where inhibition reaches its midpoint.

Structures are written as SMILES.

Sequence of human Kv1.5 channel (P22460 whole entry): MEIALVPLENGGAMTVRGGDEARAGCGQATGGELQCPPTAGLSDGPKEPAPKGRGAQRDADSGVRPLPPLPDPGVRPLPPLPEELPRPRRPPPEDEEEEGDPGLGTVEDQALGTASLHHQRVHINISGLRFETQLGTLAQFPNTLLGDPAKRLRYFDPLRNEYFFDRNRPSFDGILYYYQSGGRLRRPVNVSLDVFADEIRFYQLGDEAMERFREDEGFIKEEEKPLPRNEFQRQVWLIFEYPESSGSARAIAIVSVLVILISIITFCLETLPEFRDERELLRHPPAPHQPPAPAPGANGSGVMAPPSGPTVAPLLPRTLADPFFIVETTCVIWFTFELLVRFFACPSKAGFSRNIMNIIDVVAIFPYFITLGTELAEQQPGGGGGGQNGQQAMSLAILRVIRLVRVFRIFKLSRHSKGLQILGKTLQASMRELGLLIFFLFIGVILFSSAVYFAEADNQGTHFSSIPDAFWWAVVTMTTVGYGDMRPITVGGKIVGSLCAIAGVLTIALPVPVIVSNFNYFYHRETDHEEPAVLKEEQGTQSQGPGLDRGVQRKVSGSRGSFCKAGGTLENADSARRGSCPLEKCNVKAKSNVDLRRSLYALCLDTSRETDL

In this test the target is human Kv1.5 channel (Homo sapiens, UniProt P22460). As to the kind of experiment: Test A: Rb+ efflux assay. The class given is cell-based. The following applies: CHO cells stably transfected with cDNA for human Kv1.5. As to the method:
This assay identifies compounds that block the human Kv1.5 channel potassium channel heterologously expressed in Chinese Hamster Ovary (CHO) cells by means of Rb+ ion efflux using Flame Atomic Absorption Spectroscopy. For experimental studies, CHO cells stably transfected with cDNA for human Kv1.5 were grown as confluent layers in Falcon, 384-well tissue culture-treated black-walled clear-bottomed plates and the plates were incubated overnight at 37° C. in a cell culture incubator.
After incubating overnight the cell plates were washed and a buffer containing Rb+ ions were added to the cell plates. The plates were then incubated for another 3-4 hours in a CO2-incubator (37° C.). Following this incubation period plates were washed, compounds were added and subsequently a buffer containing elevated K+ concentrations were added in order to activate the Kv1.5 channel. Following a short incubation time, aliquots of the supernatants were transferred to supernatant plates for subsequent determination of the Rb+ content using Atomic Absorption Spectrometry (ICR8000 instrument, Aurora Biomed Inc.).
Compound `CC(C)(C)NC(=O)C1c2cc(F)ccc2C(=O)N1Cc1ccccc1-c1ccccc1` (centres unmarked) [2-(biphenyl-2-ylmethyl)-N-(tert-butyl)-6-fluoro-3-oxoisoindoline-1-carboxamide] gave an IC50 of 6.7 µM. In the case of `O=C(NCCCC(F)F)C1c2ccccc2C(=O)N1C(c1ccccc1)c1ccccc1` (centres unmarked) [N-(4,4-difluorobutyl)-2-(diphenylmethyl)-3-oxoisoindoline-1-carboxamide] it was 8 µM. Turning to `CC(CN1C(=O)c2ccccc2C1C(=O)NCCc1c[nH]c2ccccc12)c1ccc(Cl)cc1` (centres unmarked) [2-[2-(4-chlorophenyl)propyl]-N-[2-(1H-indol-3-yl)ethyl]-3-oxoisoindoline-1-carboxamide], half-maximal inhibition (IC50) required 0.62 µM. Against the preceding compound, the IC50 is about 13-fold lower.

Take `C[C@H](c1ccccc1)N1C(=O)c2ccc(Cl)cc2C1C(=O)NCCCC(F)(F)F` (stereo partly drawn) [6-chloro-3-oxo-2-[(1R)-1-phenylethyl]-N-(4,4,4-trifluorobutyl)isoindoline-1-carboxamide]: half-maximal inhibition (IC50) required 2 µM. As to `CC(CN1C(=O)c2ccc(Cl)cc2C1C(=O)NCCCC(F)(F)F)c1ccc(Cl)cc1` (centres unmarked) [6-chloro-2-[2-(4-chlorophenyl)propyl]-3-oxo-N-(4,4,4-trifluorobutyl)isoindoline-1-carboxamide], the IC50 came to 0.46 µM. This IC50 is about 4.3-fold lower than that of the compound before. In the case of `CCCCNC(=O)C1c2c(F)cccc2C(=O)N1CC(C)c1ccc(Cl)cc1` (centres unmarked) it was 1.3 µM; in that of `CC(C)(C)NC(=O)C1c2ccccc2C(=O)N1Cc1ccc(F)cc1-c1ccccc1` (centres unmarked) [N-(tert-butyl)-2-[(5-fluorobiphenyl-2-yl)methyl]-3-oxoisoindoline-1-carboxamide], 13 µM; in that of `CC(c1ccccc1)N1C(=O)c2ccccc2C1C(=O)NCc1ccccc1` (single isomer, unassigned) [(1R or 1S)-N-benzyl-3-oxo-2-[(1S or 1R)-1-phenylethyl]isoindoline-1-carboxamide], 1.5 µM. Under `CCCCNC(=O)C1c2cc(F)ccc2C(=O)N1CC(C)c1ccc(Cl)cc1` (single isomer, unassigned) [(1S or 1R)-N-butyl-2-[(2R or 2S)-2-(4-chlorophenyl)propyl]-6-fluoro-3-oxoisoindoline-1-carboxamide] stands 0.73 µM; under `C[C@H](c1ccccc1)N1C(=O)c2cc(Br)ccc2C1C(=O)NCc1ccccc1` (stereo partly drawn) [N-benzyl-5-bromo-3-oxo-2-[(1R)-1-phenylethyl]isoindoline-1-carboxamide], 2.1 µM. Regarding `CC(CN1C(=O)c2cc(Cl)c(Cl)cc2C1C(=O)NC(C)(C)C)c1ccc(Cl)cc1` (centres unmarked) [N-(tert-butyl)-5,6-dichloro-2-[2-(4-chlorophenyl)propyl]-3-oxoisoindoline-1-carboxamide], the IC50 came out at 1.8 µM. This IC50 and that of the compound before are within 1.5-fold of each other.

Compound `CC(C)(C)NC(=O)C1c2ccccc2C(=O)N1Cc1ccc(F)cc1-c1ccc(F)cc1` (centres unmarked) [N-(tert-butyl)-2-[(4′,5-difluorobiphenyl-2-yl)methyl]-3-oxoisoindoline-1-carboxamide] displayed an IC50 of 9.3 µM.

Compound `CC(C)(C)NC(=O)C1c2c(O)cccc2C(=O)N1Cc1ccccc1-c1ccccc1` (centres unmarked) [2-(biphenyl-2-ylmethyl)-N-(tert-butyl)-7-hydroxy-3-oxoisoindoline-1-carboxamide] showed an IC50 of 3 µM.

Regarding `CCN(Cc1ccccc1)C(=O)C1c2ccccc2C(=O)N1CCc1ccc(Cl)cc1` (centres unmarked) [N-benzyl-2-[2-(4-chlorophenyl)ethyl]-N-ethyl-3-oxoisoindoline-1-carboxamide], the midpoint of inhibition, the IC50, lay at 0.93 µM. In the case of `O=C(NCCCC(F)F)C1c2cc(Cl)ccc2C(=O)N1Cc1ccccc1C1CCCC1` (centres unmarked) [6-chloro-2-(2-cyclopentylbenzyl)-N-(4,4-difluorobutyl)-3-oxoisoindoline-1-carboxamide], the IC50 was found to be 1.3 µM. The IC50 values of the last two compounds are within 1.5-fold of each other.

Compound `CC(C)(C)CCN1C(=O)c2ccccc2C1C(=O)NCc1cccc(OC(F)F)c1` (centres unmarked) [N-[3-(difluoromethoxy)benzyl]-2-(3,3-dimethylbutyl)-3-oxoisoindoline-1-carboxamide] registered an IC50 of 1.8 µM.

For `CC(CN1C(=O)c2ccccc2C1C(=O)NCc1ccc(F)cc1)c1ccc(Cl)cc1` (centres unmarked) [2-[2-(4-chlorophenyl)propyl]-N-(4-fluorobenzyl)-3-oxoisoindoline-1-carboxamide], inhibition was half-maximal at 1.9 µM (IC50). In the case of `O=C(NCc1ccccc1)C1c2ccccc2C(=O)N1Cc1cc(-c2ccccc2)no1` (centres unmarked) [N-benzyl-3-oxo-2-[(3-phenylisoxazol-5-yl)methyl]isoindoline-1-carboxamide] it was 1 µM; in that of `CCC(c1ccccc1)N1C(=O)c2ccccc2C1C(=O)NCc1ccccc1` (centres unmarked) [N-benzyl-3-oxo-2-(1-phenylpropyl)isoindoline-1-carboxamide], 0.4 µM; in that of `CCCCNC(=O)C1c2ccccc2C(=O)N1CC(C)c1ccc(Cl)cc1` (centres unmarked) [N-butyl-2-[2-(4-chlorophenyl)propyl]-3-oxoisoindoline-1-carboxamide], 0.73 µM. Under `CC(C)(C)CN1C(=O)c2ccccc2C1C(=O)NCc1cccc(Cl)c1` (centres unmarked) [N-(3-chlorobenzyl)-2-(2,2-dimethylpropyl)-3-oxoisoindoline-1-carboxamide] stands 2.9 µM. `CCCNC(=O)C1c2cc(F)ccc2C(=O)N1Cc1ccccc1-c1ccccc1` (centres unmarked) [2-(biphenyl-2-ylmethyl)-6-fluoro-3-oxo-N-propylisoindoline-1-carboxamide] gave an IC50 of 2.8 µM. In the case of `C[C@H](c1ccccc1)N1C(=O)c2ccc(Br)cc2C1C(=O)NCc1ccccc1` (stereo partly drawn) [N-benzyl-6-bromo-3-oxo-2-[(1R)-1-phenylethyl]isoindoline-1-carboxamide] it was 0.21 µM; in that of `CC(CN1C(=O)c2ccccc2C1C(=O)NCc1ccccc1C(F)(F)F)c1ccc(Cl)cc1` (centres unmarked) [2-[2-(4-chlorophenyl)propyl]-3-oxo-N-[2-(trifluoromethyl)benzyl]isoindoline-1-carboxamide], 0.7 µM; in that of `C[C@H](c1ccccc1)N1C(=O)c2ccc(F)cc2C1C(=O)NCc1ccccc1` (stereo partly drawn) [N-benzyl-6-fluoro-3-oxo-2-[(1R)-1-phenylethyl]isoindoline-1-carboxamide], 1.3 µM. In the case of `Cc1c(O)ccc2c1C(=O)N(Cc1ccccc1Oc1ccc(C(F)(F)F)cc1)C2C(=O)NC(C)(C)C` (centres unmarked) [N-(tert-butyl)-5-hydroxy-4-methyl-3-oxo-2-{2-[4-(trifluoromethyl)phenoxy]benzyl}isoindoline-1-carboxamide] it was 2 µM; in that of `CC(CN1C(=O)c2ccccc2C1C(=O)NCc1ccc(C#N)cc1)c1ccc(Cl)cc1` (centres unmarked) [2-[2-(4-chlorophenyl)propyl]-N-(4-cyanobenzyl)-3-oxoisoindoline-1-carboxamide], 1.2 µM. Under `CC(CN1C(=O)c2ccccc2C1C(=O)NCc1ccccc1)c1ccc(Cl)cc1` (centres unmarked) [N-benzyl-2-[2-(4-chlorophenyl)propyl]-3-oxoisoindoline-1-carboxamide] stands 0.51 µM. For `Cc1c(O)ccc2c1C(=O)N(Cc1ccccc1-c1ccc(Cl)c(Cl)c1)C2C(=O)NC(C)(C)C` (centres unmarked) [N-(tert-butyl)-2-[(3′,4′-dichlorobiphenyl-2-yl)methyl]-5-hydroxy-4-methyl-3-oxoisoindoline-1-carboxamide], it took 0.72 µM to reach half-maximal inhibition (IC50).
